Test system: Rattus norvegicus
Experiment: Average percentage HDLC change in 6 cholesterol cholic acid-fed male rats (versus control) after treatment for 8 days at a dose of 100 mg/kg/day
Type: functional

## CC1(C)CN2C(=O)c3ccccc3C(O)(c3ccccc3)C2=N1 (stereo not drawn)
  HDL-C change: 55%

## C[C@@H]1CN2C(=O)c3ccccc3[C@@](O)(c3ccc(F)cc3)C2=N1
  HDL-C change: 105%

## O=C1c2ccccc2C(O)(c2ccc(F)cc2)C2=NC3(CCCC3)CN12 (stereo not drawn)
  HDL-C change: 21%

## O=C1c2ccccc2C(O)(c2ccc(F)cc2)C2=NCCCN12 (stereo not drawn)
  HDL-C change: 22%

## O=C1c2ncccc2C(O)(c2ccc(Cl)cc2)C2=NCCN12 (stereo not drawn)
  HDL-C change: 49%

## O=C1c2ccccc2C(O)(c2ccc(F)cc2)C2=NCCN12 (stereo not drawn)
  HDL-C change: 0%

## CC1(C)CN2C(=O)c3ccccc3C(O)(c3ccc(F)cc3)C2=N1 (stereo not drawn)
  HDL-C change: 90%

## C[C@@H]1CN2C(=O)c3ccccc3C(O)(c3ccc(F)cc3)C2=N1 (single isomer, unassigned)
  HDL-C change: 38%

Reference: ChEMBL document CHEMBL1134163, “Design and synthesis of tricyclic derivatives as high density lipoprotein cholesterol enhancers” (2001)
